From the NIST ThermoML archive (doi:10.1021/je060271a)

Conditions: 343.15 K, Liquid, Vibrating tube method

CCCCC(=O)OCC(COC(=O)CCCC)(COC(=O)CCCC)COC(=O)CCCC [pentaerythritol tetrapentanoate]
Conditions	mass density [kg/m3]
27496 kPa	998.3
27541 kPa	998.4
27578 kPa	998.4
27617 kPa	998.5
27662 kPa	998.4
27700 kPa	998.5
27738 kPa	998.5
27785 kPa	998.6
27824 kPa	998.6
27862 kPa	998.5
27909 kPa	998.6
27948 kPa	998.7
27987 kPa	998.7
28026 kPa	998.7
28074 kPa	998.7
28113 kPa	998.8
28153 kPa	998.7
28200 kPa	998.8
28240 kPa	998.9
28289 kPa	998.9
28330 kPa	998.9
28371 kPa	998.8
28412 kPa	998.9
28453 kPa	999
28503 kPa	998.9
28545 kPa	999
28596 kPa	999.1
28641 kPa	999
28684 kPa	999
28725 kPa	999.2
28755 kPa	999.2
28785 kPa	999.3
28821 kPa	999.1
28853 kPa	999.3
28882 kPa	999.3
28912 kPa	999.2
28948 kPa	999.2
28978 kPa	999.3
29009 kPa	999.3
29045 kPa	999.5
29076 kPa	999.4
29107 kPa	999.3
29143 kPa	999.5
29174 kPa	999.4
29204 kPa	999.5
29242 kPa	999.5
29275 kPa	999.5
29306 kPa	999.5
29338 kPa	999.6
29375 kPa	999.6
29406 kPa	999.6
29437 kPa	999.6
29474 kPa	999.6
29506 kPa	999.7
29538 kPa	999.7
29576 kPa	999.7
29607 kPa	999.7
29639 kPa	999.8
29671 kPa	999.8
29710 kPa	999.8
29741 kPa	999.9
29780 kPa	999.8
29812 kPa	999.9
29845 kPa	999.9
29878 kPa	999.9
29917 kPa	1000
29950 kPa	999.9
29983 kPa	1000.1
30022 kPa	999.9
30056 kPa	1000
30088 kPa	999.9
30128 kPa	1000.2
30194 kPa	1000.1
30227 kPa	1000.2
30266 kPa	1000.1
30299 kPa	1000.3
30333 kPa	1000.3
30374 kPa	1000.1
30407 kPa	1000.2
30441 kPa	1000.2
30480 kPa	1000.3
30514 kPa	1000.3
30549 kPa	1000.3
30590 kPa	1000.5
30624 kPa	1000.3
30658 kPa	1000.4
30698 kPa	1000.5
30733 kPa	1000.5
30767 kPa	1000.5
30808 kPa	1000.6
30843 kPa	1000.4
30878 kPa	1000.6
30919 kPa	1000.5
30954 kPa	1000.5
30990 kPa	1000.7
31031 kPa	1000.7
31067 kPa	1000.8
31103 kPa	1000.6
31138 kPa	1000.7
31181 kPa	1000.7
31216 kPa	1000.7
31252 kPa	1000.8
31294 kPa	1000.8
31330 kPa	1000.9
31366 kPa	1000.9
31409 kPa	1001
31444 kPa	1000.8
31481 kPa	1000.8
31524 kPa	1000.8
31560 kPa	1000.9
31597 kPa	1000.9
31634 kPa	1001
31678 kPa	1001
31714 kPa	1001
31758 kPa	1001.1
31795 kPa	1001
31832 kPa	1001
31876 kPa	1001.1
31913 kPa	1001.1
31950 kPa	1001.3
31995 kPa	1001.3
32033 kPa	1001.4
32074 kPa	1001.2
32111 kPa	1001.4
32156 kPa	1001.3
32194 kPa	1001.5
32232 kPa	1001.2
32278 kPa	1001.4
32438 kPa	1001.5
32476 kPa	1001.5
32563 kPa	1001.6
32604 kPa	1001.6
32643 kPa	1001.6
32691 kPa	1001.8
32730 kPa	1001.6
32769 kPa	1001.8
32816 kPa	1001.8
32856 kPa	1001.8
32896 kPa	1001.8
32943 kPa	1001.8
32983 kPa	1001.9
33024 kPa	1001.9
33064 kPa	1001.9
33114 kPa	1002
33154 kPa	1001.9
33196 kPa	1001.9
33244 kPa	1002.1
33285 kPa	1002.1
33326 kPa	1002.2
33374 kPa	1002
33416 kPa	1002.1
33457 kPa	1002.2
33507 kPa	1002.2
33548 kPa	1002.2
33591 kPa	1002.3
33641 kPa	1002.3
33684 kPa	1002.3
33726 kPa	1002.5
33778 kPa	1002.4
33822 kPa	1002.4
